Data as given in patent US8658383B2, “Sweet taste receptor-expressing construct, cell body expressing the same, and utilization thereof” (T. Hasegawa Co., Ltd., priority 2009, dated 2014).
Residues, ends and D or L forms follow the SMILES beside them.

Biological target: T1, human sweet taste receptor (hT1R2+hT1R3) (Homo sapiens, UniProt Q7RTX0+Q8TE23)
T1 sequence (Q8TE23 20-839): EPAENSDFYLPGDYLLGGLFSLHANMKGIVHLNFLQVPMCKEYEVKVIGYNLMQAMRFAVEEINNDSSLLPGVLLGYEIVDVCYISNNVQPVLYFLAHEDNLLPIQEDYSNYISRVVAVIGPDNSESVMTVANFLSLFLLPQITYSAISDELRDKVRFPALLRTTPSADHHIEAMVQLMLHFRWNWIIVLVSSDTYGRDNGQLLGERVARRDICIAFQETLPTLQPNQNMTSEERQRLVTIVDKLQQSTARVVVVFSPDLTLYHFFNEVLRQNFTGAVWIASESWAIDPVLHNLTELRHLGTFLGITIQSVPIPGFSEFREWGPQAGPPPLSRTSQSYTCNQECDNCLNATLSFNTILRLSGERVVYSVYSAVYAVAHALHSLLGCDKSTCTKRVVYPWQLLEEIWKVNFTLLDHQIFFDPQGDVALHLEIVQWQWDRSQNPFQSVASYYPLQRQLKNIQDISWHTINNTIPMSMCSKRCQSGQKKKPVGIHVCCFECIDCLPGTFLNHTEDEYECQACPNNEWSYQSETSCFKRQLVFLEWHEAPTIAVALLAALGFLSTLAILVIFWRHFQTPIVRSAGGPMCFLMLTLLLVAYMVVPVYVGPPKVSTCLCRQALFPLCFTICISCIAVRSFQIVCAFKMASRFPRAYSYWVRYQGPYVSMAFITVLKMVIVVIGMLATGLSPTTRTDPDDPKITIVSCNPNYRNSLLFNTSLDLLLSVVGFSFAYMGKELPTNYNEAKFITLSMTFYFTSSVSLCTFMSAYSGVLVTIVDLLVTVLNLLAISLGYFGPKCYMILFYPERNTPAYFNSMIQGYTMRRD
T1 sequence (Q7RTX0 21-852): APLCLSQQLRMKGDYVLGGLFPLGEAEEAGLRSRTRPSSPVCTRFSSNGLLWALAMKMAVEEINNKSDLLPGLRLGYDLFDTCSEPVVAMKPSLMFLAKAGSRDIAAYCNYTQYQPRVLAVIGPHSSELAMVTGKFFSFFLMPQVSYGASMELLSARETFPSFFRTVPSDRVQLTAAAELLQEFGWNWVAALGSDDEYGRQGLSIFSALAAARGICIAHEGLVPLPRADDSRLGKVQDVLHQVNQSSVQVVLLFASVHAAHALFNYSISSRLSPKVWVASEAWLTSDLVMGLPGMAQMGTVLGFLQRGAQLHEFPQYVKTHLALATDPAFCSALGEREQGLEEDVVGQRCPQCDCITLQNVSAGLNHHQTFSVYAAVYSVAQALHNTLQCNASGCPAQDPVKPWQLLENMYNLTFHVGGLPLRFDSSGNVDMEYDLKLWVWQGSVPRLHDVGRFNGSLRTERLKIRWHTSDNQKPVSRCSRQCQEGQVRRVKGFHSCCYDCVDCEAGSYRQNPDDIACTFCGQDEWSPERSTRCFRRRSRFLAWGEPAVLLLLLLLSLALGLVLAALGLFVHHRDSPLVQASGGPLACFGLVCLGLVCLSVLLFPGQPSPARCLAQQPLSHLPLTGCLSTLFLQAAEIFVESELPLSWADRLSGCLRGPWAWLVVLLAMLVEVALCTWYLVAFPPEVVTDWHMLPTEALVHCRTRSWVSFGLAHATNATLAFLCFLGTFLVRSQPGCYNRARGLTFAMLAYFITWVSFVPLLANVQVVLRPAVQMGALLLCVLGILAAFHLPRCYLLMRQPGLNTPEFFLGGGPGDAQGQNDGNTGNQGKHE
Experiment: Automated fluorescent calcium imaging (Fluo-4 AM, FlexStation 3) of cultured cell strain (A)
Type: cell-based
Set-up: The sweet taste receptor subunits T1R2 and T1R3 include an entire part of each subunit
Conditions: Average ± S.E., n = 2
Protocol: Automated fluorescent imaging using FlexStation 3 (Molecular Devices) can be performed, for example, according to the following procedure.
First, cells are suspended in a low glucose ([…]) DMEM medium from which hygromycin B has been removed, and each 70 to 80 thousands of cells are seeded on each well of a 96-well plate (Corning, CellBIND Surface).
Then, after cultured at 37° C. for 24 hours, a medium is removed and replaced with a suitable amount of a HEPES (2-[4-(2-hydroxyethyl)-1-piperazinyl]ethanesulfonic acid) buffer, and a HEPES buffer containing a fluorescent calcium indicator (Fluo-4 AM attached to Molecular Devices, FLIPR Ca 4 Assay Kit) is further added. In order to facilitate transfer into cells, a fat-soluble acetoxymethyl group has been introduced into the fluorescent indicator Fluo-4 (excitation wavelength: 495 nm, fluorescent wavelength: 518 nm), and when it is added to a medium, it is easily taken into cells, and is hydrolyzed with an esterase in cells. Hydrolyzed Fluo-4 becomes difficult to be permeated through a cell membrane, and is diffused into cells to form a complex with calcium, emitting intense fluorescence. In a 96-well plate for fluorescent observation, there are a plastic bottom and a film bottom. Since a plate of the plastic bottom is satisfactory in adherability and growth of cells, it is used at a simultaneous assay using a multiplate reader for observing an entire well. However, since a plate of this plastic bottom is bad in transmission property of a UV wavelength, and inhibits transmission of excited light of Fura-2, Fluo-4 is used.
Then, after incubated at 27 to 37° C. for 30 to 60 minutes, by adding thereto a sweet taste substance at a particular concentration or a solution of a sweet taste substance and a substance to be tested, taste stimulation is performed at 27 to 37° C.
A physiological response of the cultured cell strain (A) to sucrose stimulation was analyzed by automated fluorescent imaging.
The cultured cell strain (A) prepared in Example 4 was trypsinized, and suspended in the DMEM medium, a cell density was measured, and each about 80 thousand cells were seeded on each well of a 96-well plate (Corning, CellBIND Surface).
After cultured at 37° C. for 24 hours, the medium was removed and replaced with 50 μl of a HEPES buffer, and 50 μl of a HEPES buffer containing a fluorescent calcium indicator (Fluo-4 AM attached to Molecular Devices, FLIPR Ca 4 Assay Kit) was further added. Then, this was incubated at 27° C. for 45 minutes to prepare cells to be subjected to automated fluorescent imaging.
Then, to the cells was added a HEPES buffer containing sucrose, so that a final concentration of sucrose became a concentration described in Table 1, and sucrose stimulation was performed at 27° C.
The vertical axis of FIG. 15 is a maximum of change (AF) in a fluorescent intensity between immediately after stimulation and 100 seconds after stimulation, that is, a response intensity of cells, and the horizontal axis indicates a sucrose concentration (mM) expressed by logarithm.
A physiological response of the cultured cell strain (A) to D-phenylalanine stimulation was analyzed by automated fluorescent imaging.

SMILES: COC(=O)[C@H](Cc1ccccc1)NC(=O)[C@@H](N)CC(=O)O [aspartame] (H-Asp-Phe-OMe)
- Change amount of fluorescent intensity (ΔF) (aspartame 0.04 mM): 3.0 ± 0.1
- Change amount of fluorescent intensity (ΔF) (aspartame 0.16 mM): 4.4 ± 1.1
- Change amount of fluorescent intensity (ΔF) (aspartame 0.31 mM): 5.2 ± 0.4
- Change amount of fluorescent intensity (ΔF) (aspartame 0.63 mM): 12.3 ± 1.7
- Change amount of fluorescent intensity (ΔF) (aspartame 1.25 mM): 27.9 ± 1.9
- Change amount of fluorescent intensity (ΔF) (aspartame 2.50 mM): 31.2 ± 0.7
